Test results taken from patent US8822697B2, “Paramagnetic polynuclear metal complex having high self-relaxation rate, preparation method thereof, and contrast medium containing same” (Kyungpook National University Industry-Academic Cooperation …, priority 2009, dated 2014).

Experiments:
[1] = Measurement of protonation equilibrium constants (KiH) of the ligands; conditions: for ΣpKa: 25° C., μ = 0.10M (KCl); for [H2L]/[HL][H] / [H3L]/[H2L][H] / [H5L][H4L][H] / [HL]/[L][H]: protonation equilibrium constant, log K (25° C., μ = 0.10M (KCl))
Description: The protonation equilibrium constant (KiH) can be defined by the equation of KiH═[HiL]/[Hi-1L][H^+], wherein HiL is a protonated ligand (i=1, 2, . . . ).

[2] = Stability constant and pM value for calcium; type: physicochemical; conditions: for {log KCaL(PH 7.4)}: 25° C., μ = 0.10M (KCl); for pCa: pM = −log[Mn+] free at pH 7.4, [Mn+] total = 1 μmol/dm3, [L] total = 1.1 μmol/dm3; for [CaL]/[Ca][L]: stability constant, log K (25° C., μ = 0.10M (KCl))
Description: (§1) The stability constant (KML) can be defined by the equation of KML=[ML]/[M][L], wherein M is Gd, Ca, Zn, Cu, and L indicates a ligand.
(§2) The pM value can be defined by the equation of pM=−log [Mn^+] at pH=7.4.
[M]=1.0 μmol/dm^3, [L]=1.1 μmol/dm^3

[3] = Stability, conditional stability and selectivity constants and pM value for gadolinium; type: physicochemical; conditions: for log K′sel: conditional stability constant (K′Sel); for log K′sel / {log KGdL(PH 7.4)} / [log Ksel(Gd/Ca)] / [log Ksel(Gd/Cu)] / [log Ksel(Gd/Zn)]: 25° C., μ = 0.10M (KCl); for pGd: pM = −log[Mn+] free at pH 7.4, [Mn+] total = 1 μmol/dm3, [L] total = 1.1 μmol/dm3; for [log Ksel(Gd/Ca)]: selectivity constant Gd over Ca; for [log Ksel(Gd/Cu)]: selectivity constant Gd over Cu; for [log Ksel(Gd/Zn)]: selectivity constant Gd over Zn; for [GdL]/[Gd][L]: stability constant, log K (25° C., μ = 0.10M (KCl))
Description: as §1, §2
[M]=1.0 μmol/dm^3, [L]=1.1 μmol/dm^3

[4] = Stability constant and pM value for copper; type: physicochemical; conditions: for {log KCuL(pH 7.4)}: 25° C., μ = 0.10M (KCl); for pCu: pM = −log[Mn+] free at pH 7.4, [Mn+] total = 1 μmol/dm3, [L] total = 1.1 μmol/dm3; for [CuL]/[Cu][L]: stability constant, log K (25° C., μ = 0.10M (KCl))
Description: as §1, §2
[M]=1.0 μmol/dm^3, [L]=1.1 μmol/dm^3

[5] = Stability constant and pM value for zinc; type: physicochemical; conditions: for {log KZnL(pH 7.4)}: 25° C., μ = 0.10M (KCl); for pZn: pM = −log[Mn+] free at pH 7.4, [Mn+] total = 1 μmol/dm3, [L] total = 1.1 μmol/dm3; for [ZnL]/[Zn][L]: stability constant, log K (25° C., μ = 0.10M (KCl))
Description: as §1, §2
[M]=1.0 μmol/dm^3, [L]=1.1 μmol/dm^3

[6] = Measurement of self-relaxation rate (relaxivity) R1 at 1.5 T (64 MHz); type: physicochemical; conditions: inverse recovery method
Protocol: Thus, the self-relaxation rate is a factor that determines the efficiency of contrast agent in magnetic resonance imaging. T1 (relaxation time) measurements were carried out using an inverse recovery method with a variable […] (TI) at 1.5 T (64 MHz). The magnetic resonance (MR) images were acquired at 35 different T1 values ranging from 50 to 1750 msec. T1 was obtained from the non-linear least square fit of the signal intensity measured at each TI value. Relaxivity (R1) was then calculated as an inverse of relaxation time per mM.

[7] = 20 MHz, 298 K; cited from earlier work

Row | SMILES | [H2L]/[HL][H] [1] | [H3L]/[H2L][H] [1] | [HL]/[L][H] [1] | {log KCaL(PH 7.4)} [2] | pCa [2] | [CaL]/[Ca][L] [2] | log K′sel [3] | {log KGdL(PH 7.4)} [3] | pGd [3] | [log Ksel(Gd/Ca)] [3] | [log Ksel(Gd/Cu)] [3] | [log Ksel(Gd/Zn)] [3] | [GdL]/[Gd][L] [3] | {log KCuL(pH 7.4)} [4] | pCu [4] | [CuL]/[Cu][L] [4] | {log KZnL(pH 7.4)} [5] | pZn [5] | [ZnL]/[Zn][L] [5] | R1 [6] | also measured
1 | O=C(O)CC(NC(=O)CN(CCN(CCN(CC(=O)O)CC(=O)NC(CC(=O)O)C(=O)O)CC(=O)O)CC(=O)O)C(=O)O (stereo not drawn) [Complex L2, DTPA-bis-amide-aspartic acid] | 9.42 | 5.92 | 11.55 | 4.01 | 30.1 | 10.18 | 10.74 | 14.93 | 13.98 | 10.92 | 6.34 | 6.45 | 21.12 | 8.59 | 7.59 | 14.78 | 8.48 | 7.48 | 14.67 | – | ΣpKa [1]: 28.93; [H5L][H4L][H] [1]: 2.04
2 | CNC(=O)CN(CCN(CCN(CC(=O)[O-])CC(=O)NC)CC(=O)[O-])CC(=O)[O-].[Gd+3] [Omniscan, [Gd(DTPA-bismethylamide)(H2O)], reference compound] | 4.38 | 3.31 | 9.37 | 5.11 | 4.19 | 7.17 | 9.03 | 14.84 | 13.88 | 9.68 | 3.82 | 4.81 | 16.85 | 11.06 | 10.05 | 13.03 | 10.02 | 9.06 | 12.04 | 3.3 ± 0.03 mM⁻¹ s⁻¹ | ΣpKa [1]: 17.06; self-relaxation rate [7]: 4400 M⁻¹ s⁻¹
3 | CNC[C@H](O)[C@@H](O)[C@H](O)[C@H](O)CO.CNC[C@H](O)[C@@H](O)[C@H](O)[C@H](O)CO.O=C([O-])CN(CCN(CC(=O)[O-])CC(=O)O)CCN(CC(=O)[O-])CC(=O)O.[Gd+3] [Magnevist, (N-Me-glucamine)2[Gd(DTPA)(H2O)]] | – | – | – | – | – | – | – | – | – | – | – | – | – | – | – | – | – | – | – | – | self-relaxation rate [7]: approximately 4.7 mM^−1s^−1
4 | O=C(O)CN(CCN(CC(=O)O)CC(=O)NC(Cc1cnc[nH]1)C(=O)O)CCN(CC(=O)O)CC(=O)NC(Cc1cnc[nH]1)C(=O)O (stereo not drawn) [Complex L1, DTPA-bis-amide-histidine] | 7.59 | 6.52 | 9.52 | 4.30 | 3.30 | 6.86 | 19.59 | 17.03 | 16.03 | 12.73 | 8.66 | 8.66 | 19.59 | 8.42 | 7.42 | 10.98 | 8.37 | 7.37 | 10.93 | – | [H5L][H4L][H] [1]: 3.82
5 | O.O=C([O-])CN(CCN(CC(=O)[O-])CC(=O)NC(CC(=O)O)C(=O)O)CCN(CC(=O)[O-])CC(=O)NC(CC(=O)O)C(=O)O.[Gd+3] (stereo not drawn) [[Gd(L2)H2O]] | – | – | – | – | – | – | – | – | – | – | – | – | – | – | – | – | – | – | – | 6.9 ± 0.04 mM⁻¹ s⁻¹ | –
6 | O.O=C([O-])CN(CCN(CC(=O)[O-])CC(=O)NC(Cc1cnc[nH]1)C(=O)O)CCN(CC(=O)[O-])CC(=O)NC(Cc1cnc[nH]1)C(=O)O.[Gd+3] (stereo not drawn) [[Gd(L1)H2O]] | – | – | – | – | – | – | – | – | – | – | – | – | – | – | – | – | – | – | – | 5.9 ± 0.03 mM⁻¹ s⁻¹ | –
